# Test results taken from paper PMC12055039 (Organic & biomolecular chemistry, 2024).
# System: T. brucei
# Experiment: Antiparasitic screening against T. brucei
# Format: cell-based
# Conditions: read-out: T. brucei EC50; mean ± standard error, 3 biological replicates
row,Compound,EC50
1,"COC(=O)c1[nH]cc2c1[C@]1(CN(C)c3ccc(Cl)cc31)c1[nH]c3ccc(Cl)cc3c1-2 (racemic) [Compound 2, spiroindimicin B]",3 ± 0.23 µM
2,"COC(=O)c1[nH]cc2c1[C@]1(CNc3ccc(Cl)cc31)c1[nH]c3ccc(Cl)cc3c1-2 (racemic) [Compound 3, spiroindimicin C]",13 ± 0.98 µM
3,"COC(=O)c1[nH]c(C(=O)OC)c2c1-c1c([nH]c3ccc(Cl)cc13)[C@@]21CN(C)c2ccc(Cl)cc21 (racemic) [Compound 4, spiroindimicin D]",3.4 ± 0.21 µM
4,"COC(=O)c1[nH]cc2c1[C@@]1(CN(C)c3ccc(Cl)cc31)c1[nH]c3ccccc3c1-2 (racemic) [Compound 5, spiroindimicin E]",4.4 ± 0.32 µM
5,"COC(=O)c1[nH]cc2c1[C@@]1(CN(C)c3ccccc31)c1[nH]c3ccc(Cl)cc3c1-2 (racemic) [Compound 6, spiroindimicin F]",4 ± 0.2 µM
6,N-PMB spiroindimicin C [Compound 74],1.2 ± 0.03 µM
7,spiroindimicin G [Compound 7],0.65 ± 0.14 µM

# System: P. falciparum 3D7
# Experiment: Antiparasitic screening against P. falciparum 3D7
# Format: cell-based
# Conditions: read-out: P. falciparum 3D7 EC50; mean ± standard error, 3 biological replicates
row,Compound,EC50
1,"COC(=O)c1[nH]cc2c1[C@]1(CN(C)c3ccc(Cl)cc31)c1[nH]c3ccc(Cl)cc3c1-2 (racemic) [Compound 2, spiroindimicin B]",3 ± 0.2 µM
2,"COC(=O)c1[nH]cc2c1[C@]1(CNc3ccc(Cl)cc31)c1[nH]c3ccc(Cl)cc3c1-2 (racemic) [Compound 3, spiroindimicin C]",7.1 ± 0.58 µM
3,"COC(=O)c1[nH]c(C(=O)OC)c2c1-c1c([nH]c3ccc(Cl)cc13)[C@@]21CN(C)c2ccc(Cl)cc21 (racemic) [Compound 4, spiroindimicin D]",5.6 ± 0.22 µM
4,"COC(=O)c1[nH]cc2c1[C@@]1(CN(C)c3ccc(Cl)cc31)c1[nH]c3ccccc3c1-2 (racemic) [Compound 5, spiroindimicin E]",4.8 ± 0.51 µM
5,"COC(=O)c1[nH]cc2c1[C@@]1(CN(C)c3ccccc31)c1[nH]c3ccc(Cl)cc3c1-2 (racemic) [Compound 6, spiroindimicin F]",9 ± 0.97 µM
6,N-PMB spiroindimicin C [Compound 74],3.7 ± 0.35 µM
7,spiroindimicin G [Compound 7],7.6 ± 0.47 µM

# System: L. amazonensis
# Experiment: Antiparasitic screening against L. amazonensis
# Format: cell-based
# Conditions: read-out: L. amazonensis EC50; mean ± standard error, 3 biological replicates
row,Compound,EC50
1,"COC(=O)c1[nH]cc2c1[C@]1(CN(C)c3ccc(Cl)cc31)c1[nH]c3ccc(Cl)cc3c1-2 (racemic) [Compound 2, spiroindimicin B]",8 ± 0.49 µM
2,"COC(=O)c1[nH]cc2c1[C@]1(CNc3ccc(Cl)cc31)c1[nH]c3ccc(Cl)cc3c1-2 (racemic) [Compound 3, spiroindimicin C]",> 10 µM
3,"COC(=O)c1[nH]c(C(=O)OC)c2c1-c1c([nH]c3ccc(Cl)cc13)[C@@]21CN(C)c2ccc(Cl)cc21 (racemic) [Compound 4, spiroindimicin D]",7.7 ± 0.23 µM
4,"COC(=O)c1[nH]cc2c1[C@@]1(CN(C)c3ccc(Cl)cc31)c1[nH]c3ccccc3c1-2 (racemic) [Compound 5, spiroindimicin E]",9.3 ± 1.7 µM
5,"COC(=O)c1[nH]cc2c1[C@@]1(CN(C)c3ccccc31)c1[nH]c3ccc(Cl)cc3c1-2 (racemic) [Compound 6, spiroindimicin F]",9.9 ± 1.2 µM
6,N-PMB spiroindimicin C [Compound 74],> 10 µM
7,spiroindimicin G [Compound 7],8.1 ± 0.5 µM

# System: L. amazonensis
# Experiment: not given
# Conditions: read-out: L. amazonensis EC50; 6/5-spiroindimicins; ref 4b; cited from earlier work
row,Compound,EC50
1,"COC(=O)c1[nH]c(C(=O)OC)c2c1-c1c[nH]c3ccc(Cl)c(c13)[C@@]21C=Nc2ccc(Cl)cc21 [Compound 1, spiroindimicin A]",1.3 µM

# System: T. brucei
# Experiment: not given
# Conditions: read-out: EC50 (T. brucei); Phase III candidate for trypanosomiasis; cited from earlier work
row,Compound,EC50
1,CC1(C)OB(O)c2cc(NC(=O)c3ccc(F)cc3C(F)(F)F)ccc21 [acoziborole],0.6 µM

# System: not listed separately
# Experiment: Cytotoxicity against HepG2 cells
# Conditions: human
row,Compound,CC50
1,C[C@H]1CCC/C=C/[C@@H]2C[C@H](O)C[C@H]2[C@H](O)/C=C/C(=O)O1 [brefeldin A],0.064 ± 0.0045 µM
